Our source for the logP values is the SangsterLogP compilation.

The logP is a log measure of how a compound divides between an organic and an aqueous phase. As to `CC(=O)OCCCNc1ccc(-c2ccncc2)c(C)n1`, the logP turned out to be 2.91. For `CC(=O)OCCOc1ccc(-c2ccccc2)c(C)n1`, the logP was 4. As for `CC(=O)OCC(COc1ncc(-c2ccncc2)cc1C#N)OC(C)=O` (stereo not given), the logP is 2.51.

The compound `CC(=O)OCCOc1ccc(-c2ccncc2)cn1` returned a logP of 1.92. `O=C(OCCNc1ccc(-c2ccncc2)cn1)c1ccccc1` showed a logP of 3.84. In turn, `CC(=O)OCCNc1ccc(-c2ccncc2)cn1` had a lipophilicity (logP) of 2.

In turn, `O=C(OCCNc1ccc(-c2ccncc2)cn1)c1cccnc1` had a logP of 2.58. `CCC(=O)N1CCN(c2ccc(-c3ccncc3)cn2)CC1` had a logP of 2.39. The compound `CCC(=O)OCCCNc1ccc(-c2ccncc2)cn1` displayed a lipophilicity (logP) of 2.87. In the case of `CCC(=O)OCCOc1ccc(-c2ccncc2)c(C)n1`, the log partition coefficient (logP) stood at 3.21.

Consider `CC(=O)OCCNc1ccc(-c2ccncc2)c(C)n1`, for which the log partition coefficient (logP) was found to be 2.59. Take `CCC(=O)OCCCOc1ccc(-c2ccncc2)cn1`: the log partition coefficient (logP) was determined as 3.07.

Turning to `CC(=O)OCCCNc1ccc(-c2ccncc2)cn1`, the logP came to 2.42. Compound `CC(=O)N1CCN(c2ccc(-c3ccccc3)c(C)n2)CC1` came in with a log partition coefficient (logP) of 4.08.

Take `CC(=O)OCCN(CCOC(C)=O)c1ncc(-c2ccncc2)cc1C#N`: the logP worked out at 2.44. Take `CC(=O)N1CCN(c2ccc(-c3ccncc3)cn2)CC1`: the logP was 2.04. The figure for `CC(=O)OCCCOc1ccc(-c2ccncc2)cn1` is 2.48; for `O=C(OCCCNc1ccc(-c2ccncc2)cn1)c1ccccc1` it is 4.06. `CCC(=O)OCCNc1ccc(-c2ccncc2)cn1` registered a logP of 2.47. For `CC(=O)COC(C)CNc1ccc(-c2ccccc2)c(C)n1` (stereo not given), the logP was found to be 3.74.
